The record followed here is US6362212B1, “Oxime derivative and bactericide containing the same as active ingredient” (Shionogi & Company, Ltd., priority 1994, dated 2002).

Assay type in all cases: in vivo
The test system of assay [1] is Erysiphe graminis f. sp. tritici. Briefly: Controlling effect on Erysiphe graminis f. sp. tritici by foliage application (pot experiment). Particulars: foliage spray on wheat (cv. NORIN No. 61) seedlings, infected area after 10 days in greenhouse at 20° C. The gist of the method: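 Wheat seedlings (cv. NORIN No. 61, 2-3 weeks old) sprayed with compound in DMF diluted in water with spreader, then inoculated with conidia 24 hours later. Kept in greenhouse at 20 °C for 10 days; percent control calculated from infected leaf area.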

A further assay has as its system Puccinia coronata. Kind of assay: Controlling effect on Puccinia coronata by foliage application (pot experiment). Particulars: foliage spray on oat (cv. PC-38) seedlings, infected area after 1 day moist chamber and 8 days greenhouse at 20° C. How it is done:
The following Test Examples illustrate the effects of the fungicide of the present invention. (I. Controlling effects on various plant diseases by foliage application (pot experiment)) A test compound was dissolved in a small amount of N,N-dimethylformamide, and the solution was diluted to a given concentration with distilled water containing a spreader. Thus, a liquid sample to be tested was prepared. The liquid sample was sprayed to test plants, and 24 hours thereafter, pathogens were inoculated by the method described below. […] The seeds of oat (cv.: PC-38) were sown in plastic cups (each 9 cm in diameter), followed by cultivation for 2 to 3 weeks. The test compound in the form of a solution or suspension was sprayed to the seedlings. Spores of Puccinia coronata cultured on oat leaves were collected, diluted about 10-fold with talc, and sprayed to the test plants to inoculate the plants with the pathogen. After the inoculation, the plants were kept in a moist chamber at 20° C. for 1 day and then in a greenhouse at 20° C. for 8 days. The infected area on the leaf was observed, and the percent control was calculated.

The test system of the next assay is Sphaerotheca fuliginea. Briefly: Controlling effect on Sphaerotheca fuliginea by foliage application (pot experiment). Particulars: foliage spray on cucumber (cv. TSUKUBASHIROIBO) first leaves, infected area after 10 days in greenhouse at 20° C. The gist of the method: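 First leaves of cucumber seedlings, 2-3 weeks old, were sprayed with compound (DMF solution diluted in water with spreader). They were inoculated 24 h later with a Sphaerotheca fuliginea conidia spray and kept 10 days at 20° C in a greenhouse. Percent control was calculated from infected leaf area.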

The next assay has as its system Pyricularia oryzae. The note with it: foliage spray on rice seedlings (cv. […]), number of lesions six days after the inoculation.
Assay [2] relates to Pseudoperonospora cubensis. Kind of assay: Controlling effect on Pseudoperonospora cubensis by foliage application (pot experiment). Particulars: foliage spray on cucumber (var. TSUKUBASHIROIBO) first leaves, lesion area after 10 days in moist chamber at 20° C. How it is done:
The following Test Examples illustrate the effects of the fungicide of the present invention. (I. Controlling effects on various plant diseases by foliage application (pot experiment)) A test compound was dissolved in a small amount of N,N-dimethylformamide, and the solution was diluted to a given concentration with distilled water containing a spreader. Thus, a liquid sample to be tested was prepared. The liquid sample was sprayed to test plants, and 24 hours thereafter, pathogens were inoculated by the method described below. […] The seeds of cucumber (var.: […]) were sown in plastic cups (each 9 cm in diameter), followed by cultivation for 2 to 3 weeks. The test compound in the form of a solution or suspension was sprayed to the surface of their first leaves, and a zoosporangia suspension of Pseudoperonospora cubensis cultured on cucumber leaves was dropped on the above leaf surfaces to inoculate the test plants with the pathogen. After the inoculation, the plants were kept in a moist chamber at 20° C. for 10 days. Then, the area of the lesions around the inoculum were observed and the percent control was calculated.

Turning to `CON=C(C1=NCCN1)c1ccccc1COc1cc(C)ccc1C` [compound 1478], the “Controlling effect on ErYsiphe graminis f. sp. tritici by foliage application at 500 ppm (percent control)” value in assay [1] turned out to be 90 percent control. Also, the “Controllng effect on Puccinia coronata by foliage application at 500 ppm (percent control)” value (“Controllng effect … (percent control)” below) in the assay on Puccinia coronata was found to be 70 percent control. Also, the “Controlling effect on Sphaerotheca fuliginea by foliage application at 500 ppm (percent control)” value in the assay with Sphaerotheca fuliginea came to 70 percent control.
As to `CON=C(c1ccccc1COc1ccccc1)c1nnnn1C` [compound 1001], in the assay with Puccinia coronata, the “Controllng effect … (percent control)” value is recorded as 70 percent control.
Take `CON=C(c1ccccc1COc1ccc(Cl)cc1)n1cncn1` [compound 267]: in assay [1], the “Controlling effect on ErYsiphe graminis f. sp. tritici by foliage application at 500 ppm (percent control)” value was determined as 97 percent control. Besides, in the assay on Puccinia coronata, the “Controllng effect … (percent control)” value is reported as 90 percent control. Also, the “Controlling effect on PYricularia orYzae by foliage application at 500 ppm (percent control)” value with Pyricularia oryzae was 90 percent control. Further, the “Controlling effect on Sphaerotheca fuliginea by foliage application at 500 ppm (percent control)” value in the assay on Sphaerotheca fuliginea is 100 percent control.
Turning to `CON=C(c1cc(C)no1)c1ccccc1COc1cc(C)ccc1C` (single isomer, unassigned) [636B, 2-(2,5-dimethylphenoxymethyl)phenyl 3-methylisoxazol-5-yl ketone O-methyloxime], the “Controlling effect on ErYsiphe graminis f. sp. tritici by foliage application at 500 ppm (percent control)” value in assay [1] was determined as 100 percent control. Moreover, the “Controllng effect … (percent control)” value in the assay on Puccinia coronata is given as 90 percent control. In the assay on Pyricularia oryzae, the “Controlling effect on PYricularia orYzae by foliage application at 500 ppm (percent control)” value was 70 percent control. In addition, the “Controlling effect on Sphaerotheca fuliginea by foliage application at 500 ppm (percent control)” value with Sphaerotheca fuliginea was 100 percent control.
Take `CON=C(c1ccno1)c1ccccc1COc1cc(C)ccc1C` (single isomer, unassigned) [536A]: in assay [1], the “Controlling effect on ErYsiphe graminis f. sp. tritici by foliage application at 500 ppm (percent control)” value was 97 percent control. Besides, the “Controllng effect … (percent control)” value in the assay with Puccinia coronata was determined as 90 percent control. Moreover, in the assay on Sphaerotheca fuliginea, the “Controlling effect on Sphaerotheca fuliginea by foliage application at 500 ppm (percent control)” value amounted to 100 percent control.
`C=CCON=C(c1ccccc1COc1ccccc1)n1cncn1` [compound 278]: the “Controlling effect on ErYsiphe graminis f. sp. tritici by foliage application at 500 ppm (percent control)” value in assay [1] stood at 90 percent control. Further, in the assay with Puccinia coronata, the “Controllng effect … (percent control)” value was found to be 90 percent control. For the same compound, the “Controlling effect on Sphaerotheca fuliginea by foliage application at 500 ppm (percent control)” value in the assay with Sphaerotheca fuliginea is recorded as 97 percent control.
For the compound `CON=C(c1nnn(C)n1)c1ccccc1COc1ccccc1` [compound 2001], in the assay on Puccinia coronata, the “Controllng effect … (percent control)” value came to 70 percent control. In addition, in the assay with Sphaerotheca fuliginea, the “Controlling effect on Sphaerotheca fuliginea by foliage application at 500 ppm (percent control)” value is on record as 70 percent control.
Regarding `CON=C(c1ccon1)c1ccccc1COc1ccccc1C` (mixture of isomers) [compound 312], in assay [1], the “Controlling effect on ErYsiphe graminis f. sp. tritici by foliage application at 500 ppm (percent control)” value was determined as 100 percent control. For the same compound, the “Controllng effect … (percent control)” value in the assay on Puccinia coronata is listed as 97 percent control. Besides, the “Controlling effect on PYricularia orYzae by foliage application at 500 ppm (percent control)” value with Pyricularia oryzae was found to be 70 percent control. In addition, the “Controlling effect on Sphaerotheca fuliginea by foliage application at 500 ppm (percent control)” value in the assay on Sphaerotheca fuliginea was 100 percent control.
Consider `CCON=C(c1ccccc1COc1ccccc1)n1cncn1` [compound 275], for which the “Controlling effect on ErYsiphe graminis f. sp. tritici by foliage application at 500 ppm (percent control)” value in assay [1] is given as 90 percent control. Besides, in the assay on Puccinia coronata, the “Controllng effect … (percent control)” value amounted to 90 percent control. Moreover, in the assay with Sphaerotheca fuliginea, the “Controlling effect on Sphaerotheca fuliginea by foliage application at 500 ppm (percent control)” value came to 100 percent control.
Consider `CON=C(c1cc(C)no1)c1ccccc1COc1cc(C)ccc1C` (single isomer, unassigned) [636A, 2-(2,5-dimethylphenoxymethyl)phenyl 3-methylisoxazol-5-yl ketone O-methyloxime], for which the pest or weed control at 500 ppm in assay [1] (Blumeria graminis, foliar, 240 h, read-out: Controlling effect on ErYsiphe graminis f. sp. tritici by foliage application at 500 ppm (percent control)) stood at 100%; with Sphaerotheca fuliginea (Podosphaera fuliginea, in Cucumis sativus, foliar, 240 h, read-out: Controlling effect on Sphaerotheca fuliginea by foliage application at 500 ppm (percent control)), 97%. Besides, the “Controllng effect … (percent control)” value with Puccinia coronata is on record as 100 percent control. Also, the “Controlling effect on PYricularia orYzae by foliage application at 500 ppm (percent control)” value with Pyricularia oryzae turned out to be 97 percent control.
Take `CON=C(c1noc(C)n1)c1ccccc1COc1cc(C)ccc1C` (single isomer, unassigned) [936A]: the “Controlling effect on ErYsiphe graminis f. sp. tritici by foliage application at 500 ppm (percent control)” value in assay [1] amounted to 97 percent control. For the same compound, the “Controllng effect … (percent control)” value in the assay with Puccinia coronata was 90 percent control. Also, in the assay with Pyricularia oryzae, the “Controlling effect on PYricularia orYzae by foliage application at 500 ppm (percent control)” value came to 97 percent control. In the assay with Sphaerotheca fuliginea, the “Controlling effect on Sphaerotheca fuliginea by foliage application at 500 ppm (percent control)” value came out at 100 percent control.
Regarding `CON=C(c1ccccc1Oc1ccccc1)c1nccn1C` [compound 161], the “Controlling effect on ErYsiphe graminis f. sp. tritici by foliage application at 500 ppm (percent control)” value in assay [1] is recorded as 70 percent control. Besides, in the assay on Puccinia coronata, the “Controllng effect … (percent control)” value came to 97 percent control. In addition, the “Controlling effect on Sphaerotheca fuliginea by foliage application at 500 ppm (percent control)” value in the assay on Sphaerotheca fuliginea was found to be 100 percent control.
Turning to `CON=C(c1ccccc1COc1cc(C)ccc1C)c1nccn1C` (single isomer, unassigned) [136A], in assay [1], the “Controlling effect on ErYsiphe graminis f. sp. tritici by foliage application at 500 ppm (percent control)” value was 90 percent control. Besides, the “Controllng effect … (percent control)” value in the assay with Puccinia coronata turned out to be 100 percent control. Moreover, the “Controlling effect on PYricularia orYzae by foliage application at 500 ppm (percent control)” value in the assay with Pyricularia oryzae is given as 90 percent control. In addition, the “Controlling effect on Sphaerotheca fuliginea by foliage application at 500 ppm (percent control)” value in the assay with Sphaerotheca fuliginea was determined as 100 percent control.
For the compound `CON=C(c1noc(C)n1)c1ccccc1COc1ccc(C)cc1` [compound 914], the “Controllng effect … (percent control)” value in the assay on Puccinia coronata is given as 97 percent control.
With `CON=C(C1=NCCN1C)c1ccccc1COc1cccc(C)c1` [compound 1113], the “Controllng effect … (percent control)” value in the assay with Puccinia coronata was determined as 70 percent control.
In the case of `CON=C(C1=NCCN1C)c1ccccc1COc1cc(C)ccc1C` [Compound No. 1136], the “Controlling effect on ErYsiphe graminis f. sp. tritici by foliage application at 500 ppm (percent control)” value in assay [1] stood at 90 percent control. In addition, in the assay with Puccinia coronata, the “Controllng effect … (percent control)” value turned out to be 90 percent control. In addition, the “Controlling effect on Sphaerotheca fuliginea by foliage application at 500 ppm (percent control)” value in the assay with Sphaerotheca fuliginea is recorded as 100 percent control.
In the case of `CON=C(c1ccccc1COc1cccnc1Cl)n1ccnc1` [compound 57], the “Controlling effect on ErYsiphe graminis f. sp. tritici by foliage application at 500 ppm (percent control)” value in assay [1] was 70 percent control. For the same compound, the “Controllng effect … (percent control)” value in the assay with Puccinia coronata turned out to be 90 percent control. For the same compound, in the assay on Sphaerotheca fuliginea, the “Controlling effect on Sphaerotheca fuliginea by foliage application at 500 ppm (percent control)” value came to 90 percent control.
Regarding `CON=C(c1ccno1)c1ccccc1COc1ccccc1C` (single isomer, unassigned) [512B], the “Controlling effect on Pseudoperonospora cubensis by foliage application at 500 ppm (percent control)” value in assay [2] is 100 percent control. For the same compound, in assay [1], the “Controlling effect on ErYsiphe graminis f. sp. tritici by foliage application at 500 ppm (percent control)” value stood at 97 percent control. The “Controlling effect on PYricularia orYzae by foliage application at 500 ppm (percent control)” value with Pyricularia oryzae is listed as 97 percent control. In addition, the “Controlling effect on Sphaerotheca fuliginea by foliage application at 500 ppm (percent control)” value in the assay on Sphaerotheca fuliginea was 100 percent control.
For `C=CCON=C(c1ccccc1COc1ccccc1)n1cccn1` [compound 298], in the assay with Puccinia coronata, the “Controllng effect … (percent control)” value is 70 percent control.
On to `CON=C(c1cc(C)no1)c1ccccc1COc1ccc(C)cc1` (single isomer, unassigned) [614B], for which the “Controlling effect on Pseudoperonospora cubensis by foliage application at 500 ppm (percent control)” value in assay [2] is recorded as 100 percent control. The “Controlling effect on ErYsiphe graminis f. sp. tritici by foliage application at 500 ppm (percent control)” value in assay [1] was determined as 70 percent control. The “Controlling effect on PYricularia orYzae by foliage application at 500 ppm (percent control)” value with Pyricularia oryzae came out at 70 percent control. For the same compound, the “Controlling effect on Sphaerotheca fuliginea by foliage application at 500 ppm (percent control)” value in the assay with Sphaerotheca fuliginea stood at 97 percent control.
